We go through 42 compounds from PubChem BioAssay AID2305 (GlaxoSmithKline (GSK), 2010).

The subject of this test is P. falciparum 3D7 growth, pLDH absorbance. The test can be described thus: blood-stage malaria parasite growth potency – strain 3D7, dose response (AID 2305).
On to `O=C(NCCCc1ccccc1)c1csc(C2CCCN(C(=O)c3ccc(O)c(-c4cccc5ccccc45)c3)C2)n1` (configuration not stated), for which the IC50 is 970 nM.
The result for `Oc1cc(Nc2ccnc3cc(-c4ccc(CN5CCCCC5)o4)ccc23)c(Cl)cc1F` reads 120 nM.
`CN(C)c1ccc(C=C2SC(=N)N(c3nccs3)C2=O)cc1` displayed a concentration for half-maximal inhibition (IC50) of 460 nM.
Take `O=c1cc(NCCCNCc2[nH]c3cc(Cl)ccc3c2Cl)[nH]c2ccccc12`: the IC50 was determined as 910 nM.
Regarding `CC1c2cccc(O)c2CCN1CCc1ccc(Cl)c(Cl)c1` (configuration not stated), the IC50 stood at 140 nM.
Then `COc1ccc2nccc([C@@H](O)CN3CCC(NCc4cc5ccccc5[nH]4)CC3)c2n1`, with 630 nM; and `Fc1ccc2nccc(NN=CC=Cc3ccccc3)c2c1`, with 680 nM.
As to `c1ccc2c(NCCOCCNc3c4ccccc4nc4ccccc34)c3ccccc3nc2c1`, the IC50 is 880 nM.
`COc1cc(C(=O)N2CCN(C(C)C)CC2)ccc1CN(C)CCCN1CCN(c2cccc(Cl)c2Cl)CC1` showed an IC50 of 780 nM.
Then `O=C(CCCCCNC(=O)c1ccc(O)c(-c2ccc(Cl)c(Cl)c2)c1)NCCN1CCCCC1`, with 890 nM; and `CCOC(=O)c1c(CNc2ccncc2)n(C)c2cc(Br)c(OC(C)=O)cc12`, with 370 nM; and `COc1ccc2ncc(F)c(CCN3CCC(NCc4cc(C)c5c(c4)OCCO5)CC3)c2n1`, with 490 nM.
Then `O=C(Cc1cnc[nH]1)Nc1cccc(-c2cccc(-c3nc4ccccc4[nH]3)c2)c1`, with 1020 nM; and `CCN(CC)CCCCNc1cc(-c2[nH]c(C(C)(C)C)nc2-c2ccc3cc(OC)ccc3c2)ccn1`, with 530 nM; and `Cc1cc(N[C@@H](Cc2ccccc2)C(=O)NCCc2ccccc2)nc(NCCc2cccs2)n1`, with 710 nM.
Compound `CCC(Nc1noc(-c2c(-c3ccccc3)noc2C)n1)c1ccccc1` (configuration not stated) displayed an IC50 of 970 nM.
For `Clc1ccc(CCNCCCCCCNCCc2ccc3c(c2)OCO3)cc1`, the IC50 worked out at 1730 nM. This IC50 is about 1.8-fold higher than that of the compound before.
The compound `CCOc1cc(C(=O)Nc2ccc3nc(N4CCN(C)CC4)cc(C)c3c2)cc(OCC)c1OCC` gave a 50% inhibitory concentration (IC50) of 850 nM.
Turning to `O=C(NCCCN1CCCC1=O)NCc1ccccc1`, the IC50 is 820 nM.
The result for `COc1ccccc1CN1CCC(NC(=O)c2ccc(-c3cccc(C(F)(F)F)c3)s2)CC1` reads 1310 nM.
Regarding `CN(Cc1ccc(NC(=O)NC2CCN(C(=O)/C=C/c3ccc(Cl)c(Cl)c3)CC2)cc1)C1CCOCC1`, the IC50 turned out to be 880 nM.
With `O=C(Nc1ccccc1F)N(CCCn1ccnc1)Cc1csc(-c2ccc(CNCc3ccccc3)cc2)n1`, the IC50 was 840 nM.
Turning to `CN(C)CCNCc1cccc(-c2ccc3c(Nc4ccc(Oc5ccccn5)cc4)ccnc3c2)c1`, the IC50 is 230 nM. Against the preceding compound, the IC50 is about 3.7-fold lower.
Compound `CCS(=O)(=O)N1CCN(c2nc(-c3ccccc3)nc(COC)c2Cc2ccccc2F)CC1` yielded an IC50 of 1450 nM.
For the compound `CCc1cn(C)c2c(N3CCCC3=O)cc(C(=O)N[C@@H](Cc3ccccc3)[C@H](O)CNC(C)(C)CCCC(C)C)cc12`, the IC50 turned out to be 490 nM.
The compound `Nc1nccc2ccc(-c3ccc(OCc4ccccc4)cc3)cc12` had an IC50 of 220 nM.
In turn, `O=C(Nc1ccc(O)c(-c2nc3ccccc3[nH]2)c1)c1ccc([N+](=O)[O-])cc1` registered an IC50 of 320 nM. This IC50 and that of the compound before are within 1.5-fold of each other.
Then `CCCCCCCn1c2c(c(=N)c3c1CCC3)CCCC2`, with 100 nM; and `CC(C)(CNC(=O)[C@@H]1CCCN(CCOc2ccc(F)c(F)c2)C1)c1nc(-c2ccc(Cl)c(O)c2)c(-c2ccncc2)[nH]1`, with 720 nM; and `COc1cccc(-n2ncc3c(N/N=C/c4ccc(CN(C)CCN(C)C)cc4)ncnc32)c1`, with 890 nM.
Regarding `COc1ccc(Nc2nccc(N3CCC(NC(=O)c4cccc(C#N)c4)C3)n2)cc1` (configuration not stated), the IC50 stood at 820 nM.
Consider `COc1ccc(CNC2CCN(c3ccc(NC(=O)c4cccc(Cl)c4)cc3)CC2)cc1OC`, for which the IC50 amounted to 1020 nM.
In the case of `NC(N)=Nc1nc(-c2cc(NC(=O)C(F)(F)F)cc([N+](=O)[O-])c2)cs1`, the 50% inhibitory concentration (IC50) came out at 780 nM.
The result for `COc1ccc2nccc(N3CCC(CCNCc4ccc5c(n4)NC(=O)CS5)CC3)c2n1` reads 230 nM; that for `COc1ccc(-c2cccc(NC(=O)c3cccc(Cl)c3)c2)cc1CN1CCCC1`, 730 nM.
The result for `Cc1ccccc1C1CCN(C2CCC(NC(=O)c3cc4cc(C(C)C)ccc4[nH]3)CC2)CC1` (configuration not stated) reads 690 nM; that for `Clc1cc(Cl)c2cc(CN[C@H]3CCC[C@@H]3CNc3nc4ccccc4[nH]3)[nH]c2c1`, 270 nM; that for `CCN(CCCN1CCCCC1)c1cc(C)nc(Nc2cc(Cl)cc(Cl)c2)n1`, 290 nM.
The compound `CN(CCCCNC(=O)c1cc2ccccc2[nH]1)C1CC2(CCN(C(=O)OC(C)(C)C)CC2)c2ccccc21` (configuration not stated) had an IC50 of 930 nM.
Compound `Nc1c(Cl)cc(C(O)CNCCCCCCOCCC=C2CCOCC2)cc1Cl` (configuration not stated) came in with an IC50 of 630 nM.
As for `COc1ccc(C(=O)NCc2ccc(N)nc2C)cc1Nc1ncc(-c2cccc(N(C)C)c2)cn1`, the IC50 was 900 nM.
As for `O=C(Nc1ccc(Oc2ccccc2)cc1)N(CCN1CCCC1)Cc1ccc(-c2ccc(CN3CCNCC3)cc2)cc1`, the IC50 was 890 nM.

A word on the IC50: it is the concentration needed to halve the response being measured. Low values mean higher potency, high ones lower potency.
